Results taken from ChEMBL document CHEMBL1649464, “Galleria mellonella as a model system to study Acinetobacter baumannii pathogenesis and therapeutics” (2009).
Activity calls are given as the source filed them. The rule behind the calls is not given here.

Tests used:
Acinetobacter baumannii [1] = assay: Antibacterial activity against Acinetobacter baumannii A9844 infected in Galleria mellonella caterpillar assessed as prolonged survival rate at 6 mg/kg administered as single dose; assay type: functional, organism-based; design: dose 6 mg/kg
Acinetobacter baumannii [2] = assay: Antibacterial activity against Acinetobacter baumannii A9844 infected in Galleria mellonella caterpillar assessed as prolonged survival rate at 60 mg/kg administered as single dose; assay type: functional, organism-based; design: dose 60 mg/kg
Acinetobacter baumannii [3] = assay: Antibacterial activity against carbapenem-resistant Acinetobacter baumannii A3587 infected in Galleria mellonella caterpillar assessed as prolonged survival rate at 60 mg/kg administered as single dose; assay type: functional
Acinetobacter baumannii [4] = assay: Antibacterial activity against Acinetobacter baumannii A9844 infected in Galleria mellonella caterpillar assessed as prolonged survival rate at 150 mg/kg administered as single dose; assay type: functional, organism-based; design: dose 150 mg/kg
Acinetobacter baumannii [5] = assay: Antibacterial activity against Acinetobacter baumannii A9844 infected in Galleria mellonella caterpillar assessed as prolonged survival rate at 50 mg/kg administered as single dose; assay type: functional, organism-based; design: dose 50 mg/kg

In the case of GENTAMICIN, the Activity (Acinetobacter baumannii [1]) is reported as “Active”.
For `C[C@@H](O)[C@H]1C(=O)N2C(C(=O)O)=C(S[C@@H]3CN[C@H](C(=O)N(C)C)C3)[C@H](C)[C@H]12` [MEROPENEM], the Activity (Acinetobacter baumannii [2]) was “Active” and the Activity (Acinetobacter baumannii [3]) was “<=12%”.
For `CO/N=C(\C(=O)N[C@@H]1C(=O)N2C(C(=O)O)=C(COC(C)=O)CS[C@H]12)c1csc(N)n1`, the Activity (Acinetobacter baumannii [4]) was “inactive”.
`CN(C)[C@@H]1C(O)=C(C(N)=O)C(=O)[C@@]2(O)C(O)=C3C(=O)c4c(O)cccc4[C@@](C)(O)[C@H]3C[C@@H]12` was tested, and the Activity (Acinetobacter baumannii [5]) was “inactive”.
